In brackets after ≈: the same amount, converted by molar mass. Where a SMILES comes first, the peptide text is derived from it. [ ]: non-standard residue; d: D form. Sar = CNCC(=O)O
Key:
E. coli K12 [1] = format: cell-based, Escherichia coli; conditions: E. coli K12 in M9 minimal media, 30 μM DiOC2(3) 5 min, 20 μM CCCP or 8 μM peptide, 37 °C, up to 180 min, ex 450/em 510 nm; duplicate, three independent days
Experimental: Overnight cultures of E. coli K12 grown in Luria-Bertani (LB) broth were pelleted and resuspended to an OD600 of 0.4 in M9 minimal media. Cultures were grown at 37 °C for 30 min prior to being incubated with 10 mM EDTA for 5 min. Cultures were pelleted again and resuspended in fresh M9 minimal media to remove EDTA before the addition of 30 μM 3,3′-diethyloxacarbocynanine iodide (DiOC2 ([3]); Invitrogen). […] Fluorescence was measured immediately at 37 °C every 3 min for up to 3 h using a SpectraMax Gemini EM microplate reader set to 450 nm excitation and 510 nm emission wavelengths. Fluorescence curves were normalized to wells containing only dye and then plotted and analyzed using GraphPad Prism 9. Data at 15-min intervals are presented as mean and standard deviation of the mean for ease of visualization. Experiments were performed in duplicate and repeated on three independent days.

E. coli K12 [2] = format: cell-based, Escherichia coli; conditions: E. coli K12, Mueller-Hinton broth, 50,000 CFU/well, up to 64 μM peptide, 37 °C, 20 h, OD 600 nm; concentration giving >99% reduction in growth; mean and standard deviation of the mean
Experimental: Overnight cultures of E. coli K-12 grown in Mueller-Hinton broth were incubated at 50,000 CFU/well with up to 64 μM of peptide in 96-well plates (Corning, Ref 3598). Plates were then incubated at 37 °C for 20 h, after which the optical density (OD) was measured at 600 nm. Minimum inhibitory concentration (MIC) was determined as the peptide concentration resulting in >99% reduction in growth.

[3] = Tryptophan quenching assay with dibrominated lipid LUVs; format: physicochemical; conditions: 5 μM peptide or BSA, peptide-to-lipid ratio of 62.5, 0-30% brominated lipid, Stern-Volmer plot; mean of three independent analyses
Experimental: Large unilamellar vesicles (LUVs) were prepared using methods previously described ([14]). Briefly, 1-palmitoyl-2-oleoyl-sn-glycero-3-phosphoethanolamine (POPE) and 1-palmitoyl-2-oleoyl-sn-glycero-3-phospho-(1′-rac-glycerol) (POPG) (Avanti Polar Lipids) were combined in a 3:1 ratio, respectively, in chloroform and dried to a film before water washing and lyophilizing into a powder. This powder was resuspended in Tris-Cl buffer (10 mM Tris, 10 mM NaCl, pH 7), freeze-thawed 5× (dry ice – 50 °C water bath) and extruded through a mini-extruder fitted with a 0.2 μm Whatman Nuclepore polycarbonate membrane filter (Cytiva) at least 15× to form LUVs. Where applicable, 1-palmitoyl-2-(6,7-dibromo)stearoyl-sn-glycero-3-phosphocholine (PC-Br ([6], [7])) or 1-palmitoyl-2-(11,12-dibromo)stearoyl-sn-glycero-3-phosphocholine (PC-Br ([11], [12])) (Avanti Polar Lipids) were substituted for POPE at the given percentages and incorporated into LUVs as described.
Brominated lipid-containing LUVs (0%, 10%, 20%, and 30%) were combined with 5 μM peptide and tryptophan emission fluorescence was recorded from 300 to 400 nm using a 280 nm excitation wavelength. Fluorescence spectra were plotted and the area under the curve was used to generate a Stern-Volmer plot of initial fluorescence/quenched fluorescence (Fo/F) against percentage brominated lipid. […]

[4] = Circular dichroism, peptide secondary structure; format: physicochemical; conditions: 20 μM peptide, 10 mM Tris-Cl, 10 mM NaCl, pH 7, minima at 208 and 222 nm, average of three independent analyses
Experimental: Circular dichroism (CD) spectra of peptides were recorded between 190 and 250 nm on a Jasco J-1500 CD spectropolarimeter using a 0.1 cm pathlength quartz cuvette, scanning at […] with three accumulations. Peptide spectra were acquired in either water, 20% acetonitrile, 140 mM sodium dodecyl sulfate (SDS), or 3:1 POPE:POPG, in buffer (10 mM Tris-Cl, 10 mM NaCl, pH 7), at a constant peptide concentration of 20 μM and then plotted using GraphPad Prism 9. Data are presented from 200 to 250 nm for ease of visualization. Raw millidegree (mdeg) spectra were background subtracted and converted to mean residue ellipticity (MRE) using Equation 1 below, where c is the concentration in μM, l is the pathlength in cm, and n is the number of residues.(1) MRE=100(mdeg)/cln
Using the MRE value at 222 nm, the peptide helical percentage was estimated using Equation 2 below ([45], [46]), where MRE222 is the MRE value at 222 nm and n is the number of peptide bonds.(2) %Helix=100(MRE222/(−39,500(1−2.57/n)))

Molecule	Dissipation of the proton motive force (DiOC2(3) RFU) (E. coli K12 [1])	MIC (E. coli K12 [2])	Tryptophan fluorescence quenching by PC-Br(11,12)-containing LUVs (depth of insertion) [3]	Peptide secondary structure in the aqueous phase (CD) [4]
carbonyl cyanide m-chlorophenylhydrazine [CCCP, reference compound]	immediate increase in RFU	–	–	–
CC[C@H](C)[C@H](NC(=O)CNC(=O)[C@H](CC(C)C)NC(=O)[C@H](Cc1c[nH]c2ccccc12)NC(=O)[C@H](C)NC(=O)[C@@H](NC(=O)[C@@H](NC(=O)[C@H](CCSC)NC(=O)[C@@H](NC(=O)[C@H](C)NC(=O)[C@H](Cc1ccccc1)NC(=O)[C@H](C)NC(=O)[C@H](CC(C)C)NC(=O)[C@H](CC(C)C)NC(=O)CNC(=O)[C@@H]1CCCN1C(=O)[C@@H](NC(=O)CN(C)C(=O)CN(C)C(=O)CN(C)C(=O)[C@H](C)NC(C)=O)C(C)C)[C@@H](C)CC)[C@@H](C)CC)[C@@H](C)CC)C(=O)N[C@@H](C)C(=O)N[C@H](C(=O)N[C@H](C(=O)N[C@@H](CCCCN)C(=O)N[C@@H](CC(C)C)C(=O)N[C@@H](CCCCN)C(=O)N[C@@H](CCCCN)C(=O)N[C@@H](CCCCN)C(=O)N[C@@H](CCCCN)C(N)=O)[C@@H](C)CC)[C@@H](C)CC [TM1-3] (Ac-A[Sar][Sar][Sar]VPGLLAFAIMIIAWLGIAIIKLKKKK-NH2)	–	>64 µM	penetrate deeper into the lipid bilayer	–
CC[C@H](C)[C@H](NC(=O)[C@H](C)NC(=O)[C@@H](NC(=O)[C@H](CC(C)C)NC(=O)[C@@H](NC(=O)[C@H](Cc1c[nH]c2ccccc12)NC(=O)CNC(=O)[C@H](C)NC(=O)[C@H](CCSC)NC(=O)[C@H](C)NC(=O)CNC(=O)[C@H](Cc1ccccc1)NC(=O)[C@@H](NC(=O)[C@H](CC(C)C)NC(=O)[C@H](CC(C)C)NC(=O)[C@@H](NC(=O)[C@@H]1CCCN1C(=O)[C@@H](NC(=O)CN(C)C(=O)CN(C)C(=O)CN(C)C(=O)[C@H](C)NC(C)=O)C(C)C)[C@@H](C)CC)[C@@H](C)CC)[C@@H](C)CC)[C@@H](C)CC)C(=O)N[C@H](C(=O)N[C@@H](C)C(=O)N[C@@H](CCCCN)C(=O)N[C@@H](CC(C)C)C(=O)N[C@@H](CCCCN)C(=O)N[C@@H](CCCCN)C(=O)N[C@@H](CCCCN)C(=O)N[C@@H](CCCCN)C(N)=O)[C@@H](C)CC [TM1-2] (Ac-A[Sar][Sar][Sar]VPILLIFGAMAGWILIAIIAKLKKKK-NH2)	re-establish the PMF back in the range of untreated cultures	>64 µM	–	–
CC[C@H](C)[C@H](NC(=O)[C@H](C)NC(=O)[C@H](CCSC)NC(=O)[C@H](C)NC(=O)[C@@H](NC(=O)[C@H](Cc1ccccc1)NC(=O)CNC(=O)[C@H](CC(C)C)NC(=O)[C@H](CC(C)C)NC(=O)CNC(=O)[C@@H]1CCCN1C(=O)[C@@H](NC(=O)CN(C)C(=O)CN(C)C(=O)CN(C)C(=O)[C@H](C)NC(C)=O)C(C)C)[C@@H](C)CC)C(=O)N[C@@H](Cc1c[nH]c2ccccc12)C(=O)N[C@H](C(=O)N[C@@H](CC(C)C)C(=O)N[C@H](C(=O)N[C@@H](C)C(=O)N[C@H](C(=O)N[C@H](C(=O)N[C@@H](C)C(=O)N[C@@H](CCCCN)C(=O)N[C@@H](CC(C)C)C(=O)N[C@@H](CCCCN)C(=O)N[C@@H](CCCCN)C(=O)N[C@@H](CCCCN)C(=O)N[C@@H](CCCCN)C(N)=O)[C@@H](C)CC)[C@@H](C)CC)[C@@H](C)CC)[C@@H](C)CC [TM1-4] (Ac-A[Sar][Sar][Sar]VPGLLGFIAMAIWILIAIIAKLKKKK-NH2)	–	>64 µM	penetrate deeper into the lipid bilayer	strongest helix
CC[C@H](C)[C@H](NC(=O)CN)C(=O)NCC(=O)N[C@@H](C)C(=O)N[C@H](C(=O)N[C@@H](CC(C)C)C(=O)N[C@@H](CCCCN)C(=O)N[C@H](C(=O)N[C@@H](CC(C)C)C(=O)N[C@H](C(=O)N[C@H](C(=O)NCC(=O)N[C@@H](CC(C)C)C(=O)N1CCC[C@H]1C(=O)N[C@@H](C)C(=O)N[C@@H](CC(C)C)C(=O)N[C@H](C(=O)N[C@@H](CO)C(=O)N[C@@H](Cc1c[nH]c2ccccc12)C(=O)N[C@H](C(=O)N[C@@H](CCCCN)C(=O)N[C@@H](CCCNC(=N)N)C(=O)N[C@@H](CCCCN)C(=O)N[C@@H](CCCNC(=N)N)C(=O)N[C@@H](CCC(N)=O)C(=O)N[C@@H](CCC(N)=O)C(N)=O)[C@@H](C)CC)[C@@H](C)CC)[C@@H](C)O)[C@@H](C)O)C(C)C)C(C)C [Melittin, reference compound]	–	5 ± 2 µM (≈ 14.2 µg/mL)	–	–
CC[C@H](C)[C@H](NC(=O)[C@H](C)NC(=O)[C@H](CC(C)C)NC(=O)CNC(=O)CNC(=O)[C@H](C)NC(=O)[C@H](CC(C)C)NC(=O)[C@H](CCSC)NC(=O)[C@@H](NC(=O)[C@@H](NC(=O)[C@@H](NC(=O)[C@H](C)NC(=O)[C@@H](NC(=O)[C@@H](NC(=O)[C@H](Cc1c[nH]c2ccccc12)NC(=O)[C@H](C)NC(=O)[C@H](Cc1ccccc1)NC(=O)[C@@H](NC(=O)[C@@H]1CCCN1C(=O)CN(C)C(=O)CN(C)C(=O)CN(C)C(=O)[C@H](C)NC(C)=O)[C@@H](C)CC)C(C)C)[C@@H](C)CC)[C@@H](C)CC)[C@@H](C)CC)[C@@H](C)CC)C(=O)N[C@@H](CC(C)C)C(=O)N[C@@H](CCCCN)C(=O)N[C@@H](CC(C)C)C(=O)N[C@@H](CCCCN)C(=O)N[C@@H](CCCCN)C(=O)N[C@@H](CCCCN)C(=O)N[C@@H](CCCCN)C(N)=O [TM1-1] (Ac-A[Sar][Sar][Sar]PIFAWVIAIIIMLAGGLAILKLKKKK-NH2)	re-establish the PMF back in the range of untreated cultures	>64 µM	–	–
